The values below come from patent publication US20090318396A1, “CORTICOSTEROID LINKED BETA-AGONIST COMPOUNDS FOR USE IN THERAPY” (priority 2008, published 2009).

Data set [1] is described as follows: Stability of steroid C-21 esters, carbonates and carbamates in rat lung homogenate. The conditions noted are these: for Mean [Parent] (nM) at 2 hrs, 37° C.: parent compound; for Mean % compound remaining at 2 hrs, 37° C.: 900 nM, n=3.
Method: Lungs from Fischer 344 rats were obtained fresh by overnight delivery at 4° C. from BioReclamation Inc. (Hicksville, N.Y.). Lungs were weighed and homogenized in a 1:3 w/v ratio with sterile phosphate buffered saline (PBS, 10 mM, pH 7.4) in glass vials on ice. After centrifugation at 3,000×g for 10 min at 4° C. the supernatant was decanted into sterile conical tubes and placed on ice. The total protein content of the supernatant was determined by the bicinchoninic acid (BCA) method (Pierce Biotechnology, Rockford, Ill.), using bovine serum albumin (BSA) as the standard. Lung homogenates were prepared to a final concentration of 1 mg total protein/mL in 10 mM PBS, pH 7.4.
Heat-inactivation was achieved by incubation at 80° C. for 30 min, after which the homogenate was allowed to cool to room temperature, stored overnight at 4° C. The homogenate was used for the assay and standard curve preparations. Before use, each homogenate preparation was equilibrated for 15 min in a 37° C. water bath. […] DMSO (2.7 uL) added to 3 mL of temperature-equilibrated homogenate served as a control. Aliquots (100 uL) of homogenate+compound were added to 400 μL quenching solution consisting of 100% HPLC-grade acetonitrile+500 ng/mL glyburide for the zero time point (n=3 for each time point).
The glyburide served as an internal LC/MS/MS standard. The remainder of each drug+homogenate solution was aliquoted into a 96-well tissue culture plates. After an additional 30 min and 120 min incubation at 37° C., 100 μL aliquots were added to 400 μL quenching solution. Denatured proteins in the quenching solution were separated by centrifugation at 3000×g for 2 min at 4° C., and 160 μL of the supernatants were transferred to new 96-well plate for analysis by LC/MS/MS. Collection plates were covered with plastic film and were kept on ice. For storage, covered plates were and kept stored at −80° C. until further use.
An aliquot of 50 μL of each sample was diluted with 50 μL of water containing internal standard at 4° C. The diluted samples were then centrifuged for 20 minutes at 3000 rpm at 4° C. An aliquot of 20 μL of the solution was injected into the TSQ Ultra Quantum.
LC/MS/MS system. The compounds were separated by HPLC using a HyPurity C18 HPLC column (30×2.1 mm, 5μ) from ThermoHypersil. A Multiplex LX-2 HPLC system (Cohesive Technologies, Franklin, Mass.) with two identical Agilent 1100 series binary pumps (P/N G1312A) were used for elution and separation. Samples were maintained at 4° C. in an HTS Pal autosampler (LEAP Technologies, Carrboro, N.C.) in order to reduce any potential spontaneous hydrolysis of the compounds before injection onto the HPLC. The analytes were eluted using the following mobile phases; Mobile phase A contained 1% acetonitrile in 10 mM ammonium formate aqueous solution with 1% formic acid. Mobile phase B contained 80% acetonitrile in 10 mM ammonium formate with 1% formic acid. The HPLC elution program used to elute the analytes was as follows:
The samples were further analyzed by tandem mass spectrometry using a TSQ Quantum Ultra triple quadrupole mass spectrometer (Thermo Finnigan, San Jose, Calif.) using a selective reaction monitoring (SRM) scan type. The mass spectrometry parameters used were as follows:
Nine-point standard curves for each test compound were prepared and analyzed in heat-inactivated lung homogenate. […] The data expressed in Table 2 represent the mean (n=3) percent remaining compound in both types of homogenate at 2 hours, 37° C.
The nature of data set [2]: Drug levels in plasma, BALF and lung after IT administration in the rat. Conditions: IT.
Method: Compounds of Examples 52 and 83 were formulated for intratracheal (IT) dosing in 10% EtOH, 90% Sterile Water, and dosed in male Sprague-Dawley rats at 3 mg/kg (Example 52) and 1 mg/kg (Example 83). Each dosing group consisted of 3 male, naïve purebred Sprague-Dawley rats. At dosing, the animals weighed ˜0.30 kg. The animals were fasted overnight prior to dose administration and up to 2 hr after dosing. The compounds were administered IT using a Penn Century Microsprayer (Model 1A-1B).
Blood samples were collected at 0.5, 2, and 4 hours post-dose. Each blood sample (0.5-0.6 mL per sample) was collected via the orbital sinus (following anesthesia for BAL procedure) into tubes containing EDTA anti-coagulant into containers surrounded by dry ice at 0.5, 2 and 4 hr (mean, n=6). Blood samples were stored at −20±5° C. until shipped for analysis.
The animals were anesthetized with an intramuscular (IM) injection of a ketamine/xylazine/acepromazine (80/10/2 mg/kg) cocktail at a dose volume of 1.1 mL/kg. A cannula (modified Bard® infant feeding tube) was inserted into the trachea. Warmed sterile saline was injected into the lungs. The lungs were gently massaged by palpation of the chest for approximately 45 seconds. The fluid (BALF) was recovered and placed on ice. The procedure was repeated two more times, and all three BALF samples pooled. The fluid was centrifuged under refrigerated conditions at 350 g for 10 minutes. The supernatant and cell pellet were collected and stored at approximately −70° C. until shipped for analysis.
Immediately following each BAL procedure, the lungs from each animal were removed, blotted dry, weighed, and stored frozen at −70° C. until shipped for analysis.
An LC/MS/MS method was used to measure the concentration of compound in plasma.
Add 3×w/v of 1×PBS buffer (90:10-PBS:ACN) to each lung tissue. Homogenize the sample w/Polytron (PT1200) and take 50 uL of supernatant and inject to LC/MSMS.
An aliquot of 50 μL of each plasma sample was treated with 100 mL of acetonitrile (ACN) containing internal standard. After the protein precipitation, an aliquot of 100 μL of the supernatant was transferred to a clean 96-well plate and mixed with 100 μL of water. An aliquot of 30 μL of the above solution was injected to the TSQ Ultra Quantum LC/MS/MS system.
A HyPurity C18 HPLC column (30×2.1 mm, 5μ) from ThermoHypersil (Part #: 22105-032130) was used. Mobile phase A contained 1% acetonitrile in 10 mM ammonium formate aqueous solution with 1% formic acid. Mobile phase B contained 80% acetonitrile in 10 mM ammonium formate with 1% formic acid. An Agilent 1100 series binary pump (P/N G1312A Bin Pump) was used for elution and separation. HTS Pal autosampler from LEAP Technologies, Carrboro, N.C. was used.
TSQ Quantum Ultra triple quadrupole mass spectrometer from Thermo Finnigan, San Jose, Calif. was used in selective reaction monitoring (SRM) operation mode, Tune file:
The mark [3] stands for this setting: Inactive (heat-inactivated) rat lung homogenate.

Molecules are shown by their SMILES.

As for `CN(C)CCNC(=O)OCC(=O)[C@@]12O[C@H](C3CCCCC3)O[C@@H]1C[C@H]1[C@@H]3CCC4=CC(=O)C=C[C@]4(C)[C@H]3[C@@H](O)C[C@@]12C` [Example 39, 2-Dimethylaminoethylcarbamic acid [[11β,16α]-[[((R)-cyclohexylmethylene)bis(oxy)]-11-hydroxypregna-1,4-diene-3,20-dion-21-yl]]ester], the entries for the “Mean [Parent] (nM) at 2 hrs, 37° C.” value in data set [1] (Active homogenate) and in data set [1] (Inactive homogenate) were 186 nM and 162 nM, respectively. For the same molecule, the “Mean % compound remaining at 2 hrs, 37° C.” value (shortened to “Mean % compound remaining”) in data set [1] (Active rat lung homogenate) is recorded as 92%; in data set [1] (setting [3]) it was 78%.
Taken in the same sequence, the figures for `C[C@]12C=CC(=O)C=C1CC[C@@H]1[C@@H]2[C@@H](O)C[C@@]2(C)[C@H]1C[C@H]1O[C@@H](C3CCCCC3)O[C@]12C(=O)COC(=O)Cc1cccnc1` [Example 76, 3-Pyridineacetic acid [[11β,16α]-[16,17-((R)-cyclohexylmethylene)bis(oxy)]-11-hydroxypregna-1,4-diene-3,20-dion-21-yl]ester] were 4 nM, 142 nM, 2% and 83%.
As to `CC(CN(C)C)OC(=O)OCC(=O)[C@@]12O[C@H](C3CCCCC3)O[C@@H]1C[C@H]1[C@@H]3CCC4=CC(=O)C=C[C@]4(C)[C@H]3[C@@H](O)C[C@@]12C` (stereo partly shown) [Example 28], the “Mean [Parent] (nM) at 2 hrs, 37° C.” value came to 120 nM in data set [1] (Active homogenate) and 147 nM in data set [1] (Inactive homogenate). The “Mean % compound remaining” value in data set [1] (Active rat lung homogenate) is listed as 45%; in data set [1] (setting [3]), 64%.
The corresponding values for `C[C@]12C=CC(=O)C=C1CC[C@@H]1[C@@H]2[C@@H](O)C[C@@]2(C)[C@H]1C[C@H]1O[C@@H](C3CCCCC3)O[C@]12C(=O)COC(=O)CCc1cccnc1` [Example 34, 3-(Pyridin-3-yl)propionic acid [[11β,16α]-[[((R)-cyclohexylmethylene)bis(oxy)]-11-hydroxypregna-1,4-diene-3,20-dion-21-yl]]ester] are 1 nM, 159 nM, 0% and 73%.
Taken in the same sequence, the figures for `CN1CCC[C@H]1C(=O)OCC(=O)[C@@]12O[C@H](C3CCCCC3)O[C@@H]1C[C@H]1[C@@H]3CCC4=CC(=O)C=C[C@]4(C)[C@H]3[C@@H](O)C[C@@]12C` [Example 38, (S) 1-Methylpyrrolidinecarboxylic acid [[11β,16α]-[[((R)-cyclohexylmethylene)bis(oxy)]-11-hydroxypregna-1,4-diene-3,20-dion-21-yl]]ester] were 1 nM, 71 nM, 1% and 40%.
Taken in the same sequence, the figures for `C[C@]12C=CC(=O)C=C1CC[C@@H]1[C@@H]2[C@@H](O)C[C@@]2(C)[C@H]1C[C@H]1O[C@@H](C3CCCCC3)O[C@]12C(=O)COC(=O)c1cccnc1` [Example 29, Nicotinic acid [[11β,16α]-[[((R)-cyclohexylmethylene)bis(oxy)]-11-hydroxypregna-1,4-diene-3,20-dion-21-yl]]ester] were 2 nM, 130 nM, 1% and 72%.
As to `CN(C)CCN(C)C(=O)OCC(=O)[C@@]12O[C@H](C3CCCCC3)O[C@@H]1C[C@H]1[C@@H]3CCC4=CC(=O)C=C[C@]4(C)[C@H]3[C@@H](O)C[C@@]12C` [Example 40, 2-Dimethylaminoethyl(methyl)carbamic acid [[11β,16α]-[[((R) -cyclohexylmethylene)bis(oxy)]-11-hydroxypregna-1,4-diene-3,20-dion-21-yl]]ester], the “Mean [Parent] (nM) at 2 hrs, 37° C.” value is listed as 222 nM in data set [1] (Active homogenate) and 167 nM in data set [1] (Inactive homogenate). The “Mean % compound remaining” value in data set [1] (Active rat lung homogenate) was found to be 83%; in data set [1] (setting [3]), 78%.
Taken in the same sequence, the figures for `CC(C)[C@@H](N)C(=O)OCC(=O)[C@@]12O[C@H](C3CCCCC3)O[C@@H]1C[C@H]1[C@@H]3CCC4=CC(=O)C=C[C@]4(C)[C@H]3[C@@H](O)C[C@@]12C` [Example 50, Valine [[11β,16α]-[16,17-((R)-cyclohexylmethylene)bis(oxy)]-11-hydroxypregna-1,4-diene-3,20-dion-21-yl]ester] were 219 nM, 50 nM, 45% and 25%.
Taken in the same sequence, the figures for `CC(C)[C@@H](NC(=O)c1cccnc1)C(=O)OCC(=O)[C@@]12O[C@H](C3CCCCC3)O[C@@H]1C[C@H]1[C@@H]3CCC4=CC(=O)C=C[C@]4(C)[C@H]3[C@@H](O)C[C@@]12C` [Example 51, N-(Pyridin-3-carbonyl)valine [[11β,16α]-[16,17-((R)-cyclohexylmethylene)bis(oxy)]-11-hydroxypregna-1,4-diene-3,20-dion-21-yl]ester] were 176 nM, 169 nM, 86% and 85%.
For `CCN(CC)Cc1cccc(C(=O)OCC(=O)[C@@]23O[C@H](C4CCCCC4)O[C@@H]2C[C@H]2[C@@H]4CCC5=CC(=O)C=C[C@]5(C)[C@H]4[C@@H](O)C[C@@]23C)c1` [Example 31, 3-Diethylaminomethylbenzoic acid [[11β,16α]-[[((R)-cyclohexylmethylene)bis(oxy)]-11-hydroxypregna-1,4-diene-3,20-dion-21-yl]]ester], the “Mean [Parent] (nM) at 2 hrs, 37° C.” value in data set [1] (Active homogenate) and in data set [1] (Inactive homogenate) was 127 nM each time. For the same molecule, the “Mean % compound remaining” value in data set [1] (Active rat lung homogenate) and in data set [1] (setting [3]) was 68% in each case.
With `CC(C)[C@@H](C(=O)OCC(=O)[C@@]12O[C@H](C3CCCCC3)O[C@@H]1C[C@H]1[C@@H]3CCC4=CC(=O)C=C[C@]4(C)[C@H]3[C@@H](O)C[C@@]12C)N(C)C` [Example 79, N,N-dimethylvaline [[11β,16α]-[16,17-((R)-cyclohexylmethylene)bis(oxy)]-11-hydroxypregna-1,4-diene-3,20-dion-21-yl]ester], the “Mean [Parent] (nM) at 2 hrs, 37° C.” value in data set [1] (Active homogenate) was 149 nM; in data set [1] (Inactive homogenate), 88 nM. The “Mean % compound remaining” value worked out at 85% in data set [1] (Active rat lung homogenate) and 61% in data set [1] (setting [3]).
The corresponding values for `CN1CCN(C(=O)OCC(=O)[C@@]23O[C@H](C4CCCCC4)O[C@@H]2C[C@H]2[C@@H]4CCC5=CC(=O)C=C[C@]5(C)[C@H]4[C@@H](O)C[C@@]23C)CC1` [Example 41, 4-Methylpiperazinecarboxylic acid [[11β,16α]-[[((R)-cyclohexylmethylene)bis(oxy)]-11-hydroxypregna-1,4-diene-3,20-dion-21-yl]]ester] are 170 nM, 172 nM, 68% and 78%.
Taken in the same sequence, the figures for `CCN(CC)CC(=O)OCC(=O)[C@@]12O[C@H](C3CCCCC3)O[C@@H]1C[C@H]1[C@@H]3CCC4=CC(=O)C=C[C@]4(C)[C@H]3[C@@H](O)C[C@@]12C` [Example 32, 4-Diethylaminoacetic acid [[11β,16α]-[[((R)-cyclohexylmethylene)bis(oxy)]-11-hydroxypregna-1,4-diene-3,20-dion-21-yl]]ester] were 1 nM, 119 nM, 1% and 61%.
Taken in the same sequence, the figures for `CN(C)CC(=O)OCC(=O)[C@@]12O[C@H](C3CCCCC3)O[C@@H]1C[C@H]1[C@@H]3CCC4=CC(=O)C=C[C@]4(C)[C@H]3[C@@H](O)C[C@@]12C` [Example 75, N,N-Dimethylglycine [[11β,16α]-[16,17-((R)-cyclohexylmethlylene)bis(oxy)]-11-hydroxypregna-1,4-diene-3,20-dion-21-yl]ester] were 1 nM, 101 nM, 1% and 55%.
Consider `C[C@]12C=CC(=O)C=C1CC[C@@H]1[C@@H]2[C@@H](O)C[C@@]2(C)[C@H]1C[C@H]1O[C@@H](C3CCCCC3)O[C@]12C(=O)COC(=O)/C=C/c1cccnc1` [Example 33, 3-(Pyridin-3-yl)acrylic acid [[11β,16a]-[[((R)-cyclohexylmethylene)bis(oxy)]-11-hydroxypregna-1,4-diene-3,20-dion-21-yl]]ester], for which the results for the “Mean [Parent] (nM) at 2 hrs, 37° C.” value in data set [1] (Active homogenate) and in data set [1] (Inactive homogenate) were 4 nM and 124 nM, respectively. Moreover, the “Mean % compound remaining” value in data set [1] (Active rat lung homogenate) was determined as 3%; in data set [1] (setting [3]), 78%.
Regarding `CC[N+](CC)(CC(=O)OCC(=O)[C@@]12O[C@H](C3CCCCC3)O[C@@H]1C[C@H]1[C@@H]3CCC4=CC(=O)C=C[C@]4(C)[C@H]3[C@@H](O)C[C@@]12C)Cc1cc([C@@H](O)CNCCCCCCOCCCCc2ccccc2)ccc1OP(=O)(O)O.[Cl-]` [Example 83, [5-[1-(R)-hydroxy-2-[6-(4-phenylbutoxy)hexylamino]ethyl]-2-phosphonooxybenzyl]-(diethyl)-[[11β,16α]-[16,17-((R-cyclohexylmethylene)bis(oxy)]-11-hydroxypregna-1,4-diene-3,20-dion-21-oxy]-carbonylmethyl]ammonium chloride], the “Metabolism in the lung following IT administration” value in data set [2] was “metabolized to Salmeterol and Desisobutyryl Ciclesonide in the lung”.
